Assay results from US20260193254A1, “2-OXOQUINAZOLINE CRYSTALLINE FORMS” (IDEAYA Biosciences, Inc., priority 2022, published 2026).
≈ marks a conversion by molar mass, not a printed value. Marks after values point to notes of the source that are not given here.

Key:
Type in all cases: physicochemical
[1] = Crystallization at room temperature by fast evaporation; conditions: nitrogen flow
Description: The samples are filtered by 0.45 μm nylon filter. Obtained solutions were fast evaporated under nitrogen flow. Solid residues were examined for their polymorphic form.

[2] = Crystallization from hot saturated solutions by slow cooling; conditions: 50° C. to 5° C. at 0.1° C./min
Description: Obtained solution or suspension was filtered by a 0.45 μm syringe membrane filter. Clear solutions were cooled to 5° C. at 0.1° C./min. Precipitates were collected by filtration. The solid part (wet cake) was investigated by XRPD. When differences were observed, additional investigations were performed (e.g. DSC, TGA, etc.).

[3] = Bulk stability of crystalline forms; design: key: Color A: All No change of color; conditions: Solid state
Description: (§1) Solids obtained after bulk stability study were characterized by XRPD and HPLC.

[4] = Water activity study; conditions: protected by kapton film
Description: These solvent mixtures were saturated with the compound of Formula (I) before addition of the polymorph seeds. […] These solvent mixtures were saturated with the compound of Formula (I) before addition of the polymorph seeds. Obtained suspension was filtered. Solid part (wet cake) was investigated by XRPD.

[5] = Intrinsic dissolution rate (IDR) evaluation in FaSSIF; conditions: FaSSIF at 37° C.
Description: Only one surface of the pellet was exposed (surface area=0.50 cm^2) to 900 mL FaSSIF, the dissolution medium. Temperature of chamber medium was set as 37±0.5° C. Shaft rotation as 100 rpm and sampling time points as 2 min, 5 min, 10 min, 15 min, 20 min, 25 min, 30 min, 35 min, 40 min, 50 min, 60 min, and 120 min. 2 mL sample solution was withdrawn at each time point and centrifuged at 14,000 rpm for 5 min to isolate supernatant. Then concentration of the supernatant was analyzed by HPLC. After 120 min, XRPD of disc surface was measured.

[6] = Equilibrium solubility in FeSSIF and FaSSIF; conditions: 24 hours; for Solubility: target concentration 1 mg/mL, HPLC method 1 or 2 (footnote); for impurity in solubility sample: no unit printed for impurity (column head mg/mL)
Description: (§2) Solid part and liquid part were separated by filtration. Solubility was measured by HPLC. Solid part (wet cake) was investigated by XRPD.

[7] = Bulk stability of crystalline forms; conditions: for Purity, Bulk (HPLC): Solid state
Description: as §1

[8] = Equilibration with solvents at 50° C. for 1 week; conditions: XRPD of wet cake
Description: Obtained suspension was filtered. The solid part (wet cake) was investigated by XRPD. When differences were observed, additional investigations were performed (e.g. DSC, TGA etc.).

[9] = Equilibrium solubility in SGF (pH 2.0), 0.1 N HCl (pH 1.2) and phosphate buffer (pH 8.0); conditions: 24 hours; for solubility at 24 h: 37 °C, thermodynamic from solid, target concentration 1 mg/mL, HPLC method 2
Description: as §2

[10] = 25° C./92% RH, open container, 1 week
[11] = 25° C./92% RH, open container, 2 weeks
[12] = 40° C./75% RH, open container, 1 week
[13] = 40° C./75% RH, open container, 2 weeks
[14] = 60° C., tight container, 1 week
[15] = 60° C., tight container, 2 weeks
[16] = pH 8 (phosphate buffer), 37° C.

Nc1nc(=O)n(-c2ccccc2Cl)c2nc(C(F)(F)F)ccc12 [solid state Form V, 4-Amino-1-(2-chlorophenyl)-7-(trifluoromethyl)pyrido[2,3-d]pyrimidin-2(1H)-one]
Crystalline Form formed by fast evaporation ([1]; FE1 Methanol (14 mg/mL)): Form B
Crystalline Form formed by fast evaporation ([1]; FE2 Ethanol (7 mg/mL)): Solid state Form V
Crystalline Form formed by fast evaporation ([1]; FE3 2-Propanol (4 mg/mL)): Solid state Form V
Crystalline Form formed by fast evaporation ([1]; FE6 Acetone (3 mg/mL)): Form G
Crystalline Form formed by fast evaporation ([1]; FE7 Methyl ethyl ketone (3 mg/mL)): Form G
Crystalline Form formed by fast evaporation ([1]; FE9 Tetrahydrofuran (4 mg/mL)): Form K
Crystalline Form formed by fast evaporation ([1]; FE10 Acetonitrile (3 mg/mL)): Solid state Form V
Crystalline Form formed by fast evaporation ([1]; FE12 Methanol/Ethyl acetate = 1/1 (v/v) (5 mg/mL)): Solid state Form V
Crystalline Form formed by fast evaporation ([1]; FE13 Methanol/Acetonitrile = 1/1 (v/v) (5 mg/mL)): Solid state Form V
Crystalline Form formed by fast evaporation ([1]; FE14 Ethanol/t-Butyl methyl ether = 1/1 (v/v) (5 mg/mL)): Solid state Form V
Crystalline Form formed by fast evaporation ([1]; FE15 Ethanol/Dichloromethane = 1/1 (v/v) (5 mg/mL)): Solid state Form V
Crystalline Form formed by slow cooling of hot saturated solution ([2]; SC2 Ethanol (14 mg/mL)): Form F
Crystalline Form formed by slow cooling of hot saturated solution ([2]; SC4 Acetone (7 mg/mL)): Form G
Crystalline Form formed by slow cooling of hot saturated solution ([2]; SC6 Ethanol/water = 1/1 (v/v) (8 mg/mL)): Form F
Crystalline Form formed by slow cooling of hot saturated solution ([2]; SC8 Ethanol/acetone = 1/1 (v/v) (16 mg/mL)): Form G
Color [3, 10]: A
Color [3, 11]: A
Color [3, 12]: A
Color [3, 13]: A
Color [3, 14]: A
Color [3, 15]: A
Form obtained in water activity study (XRPD) ([4]; AW4 EtOH/water = 0.4/0.6 (v/v) aw = 0.91, 25° C. (4 days)): Form F (protected by kapton film)
Form obtained in water activity study (XRPD) ([4]; AW5 EtOH/water = 0.3/0.7 (v/v) aw = 0.93, 25° C. (4 days)): Form F (protected by kapton film)
Form obtained in water activity study (XRPD) ([4]; AW6 EtOH/water = 0.2/0.8 (v/v) aw = 0.95, 25° C. (4 days)): Form F (protected by kapton film)^a
Form obtained in water activity study (XRPD) ([4]; AW7 EtOH/water = 0.1/0.9 (v/v) aw = 0.97, 25° C. (4 days)): Form E (protected by kapton film)
Form obtained in water activity study (XRPD) ([4]; AW8 MeOH aw = 0.0, 25° C. (4 days)): Form C (protected by kapton film)
Form obtained in water activity study (XRPD) ([4]; AW9 MeOH/water = 0.970/0.030 (v/v) aw = 0.1, 25° C. (4 days)): Form F (protected by kapton film)
Form obtained in water activity study (XRPD) ([4]; AW10 MeOH/water = 0.930/0.070 (v/v) aw = 0.2, 25° C. (4 days)): Form F (protected by kapton film)
Form obtained in water activity study (XRPD) ([4]; AW11 MeOH/water = 0.893/0.107 (v/v) aw = 0.3, 25° C. (4 days)): Form F (protected by kapton film)
Form obtained in water activity study (XRPD) ([4]; AW12 MeOH/water = 0.775/0.225 (v/v) aw = 0.5, 25° C. (4 days)): Form F (protected by kapton film)
Form obtained in water activity study (XRPD) ([4]; AW13 MeOH/water = 0.580/0.420 (v/v) aw = 0.7, 25° C. (4 days)): Form F (protected by kapton film)
Form obtained in water activity study (XRPD) ([4]; AW14 MeOH/water = 0.4/0.6 (v/v) aw = 0.81, 25° C. (4 days)): Form E (protected by kapton film)
Form obtained in water activity study (XRPD) ([4]; AW15 MeOH/water = 0.3/0.7 (v/v) aw = 0.86, 25° C. (4 days)): Form E (protected by kapton film)
Form obtained in water activity study (XRPD) ([4]; AW16 MeOH/water = 0.2/0.8 (v/v) aw = 0.91, 25° C. (4 days)): Form E (protected by kapton film)
Form obtained in water activity study (XRPD) ([4]; AW17 MeOH/water = 0.1/0.9 (v/v) aw = 0.96, 25° C. (4 days)): Form E (protected by kapton film)
Form obtained in water activity study (XRPD) ([4]; AW18 Water aw = 1.0, 25° C. (4 days)): Form E (protected by kapton film)^b
XRPD after IDR ([5]; disc surface after 120 min): No form change
Concentration detected during IDR test (Comments) ([5]; for Form V and Form A remains same during the whole process, LOQ for Form T and amorphous form): (0.006 mg/mL)
final pH ([6]; FaSSIF, pH 6.5, 37° C.): 6.5
Solubility ([6]; FaSSIF, pH 6.5, 37° C.): 100 µg/mL (≈ 294 µM)
impurity in solubility sample ([6]; FaSSIF, pH 6.5, 37° C.): no impurity
final pH ([6]; FeSSIF, pH 5.0, 37° C.): 5.0
Solubility ([6]; FeSSIF, pH 5.0, 37° C.): 260 µg/mL (≈ 763 µM)
impurity in solubility sample ([6]; FeSSIF, pH 5.0, 37° C.): no impurity
Purity, Bulk (HPLC) [7, 10]: 98.9%
Purity, Bulk (HPLC) [7, 11]: 98.9%
Purity, Bulk (HPLC) [7, 12]: 98.9%
Purity, Bulk (HPLC) [7, 13]: 98.7%
Purity, Bulk (HPLC) [7, 14]: 98.8%
Purity, Bulk (HPLC) [7, 15]: 98.9%
Initial purity ([7]; before stress, HPLC): 98.9%
chemical stability and physical stability (bulk stability) ([7]; stressed under 25° C./92 RH, 40% C/75% RH and 60° C., XRPD and HPLC): good chemical stability and physical stability
Crystalline Form formed by equilibration ([8]; EQ20 Water (64 mg/mL)): Form D (mono hydrate)
Crystalline Form formed by equilibration ([8]; EQ21 Methanol (63 mg/mL)): Form C (hemi-hydrate)
Crystalline Form formed by equilibration ([8]; EQ22 Methanol/water = 1/1 (v/v) (64 mg/mL)): Form E (hemi-hydrate)
Crystalline Form formed by equilibration ([8]; EQ24 Ethanol/water = 1/1 (v/v) (63 mg/mL)): Form C (hemi-hydrate)
Crystalline Form formed by equilibration ([8]; EQ26 Acetone (65 mg/mL)): Form G
Crystalline Form formed by equilibration ([8]; EQ27 Acetone/water = 1/1 (v/v) (63 mg/mL)): Form I
Crystalline Form formed by equilibration ([8]; EQ29 t-Butyl methyl ether (65 mg/mL)): Form H (MTBE solvate)
Crystalline Form formed by equilibration ([8]; EQ30 t-Butyl methyl ether/water = 95/5 (v/v) (63 mg/mL)): Form H (MTBE solvate)
solubility at 24 h ([9]; 0.1 N HCl, pH 1.2, simulated gastric fluid, pH 1.2 (0.1N HCl)): 150 µg/mL (≈ 440 µM)
final pH ([9]; SGF, pH 2.0, 37° C.): 2.3
final pH ([9]; pH 1.2 (0.1N HCl), 37° C.): 1.3
XRPD of solid after solubility test [9, 16]: Solid state Form V
final pH [9, 16]: 8.0
impurity in solubility sample [9, 16]: no impurity
solubility at 24 h ([9]; phosphate buffer, pH 8, aqueous buffer, pH 8 (phosphate buffer)): 40 µg/mL (≈ 117 µM)
solubility at 24 h ([9]; simulated gastric fluid (SGF), pH 2, simulated gastric fluid, SGF, pH 2.0, 37° C.): 70 µg/mL (≈ 205 µM)
